The values below come from ChEMBL document CHEMBL1201862, “PubChem BioAssay data set” (2004).

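96-well plates; 48 h exposure; 5 concentrations. Endpoints by linear interpolation between flanking doses. Not reached: highest tested concentration assigned. Here, GI50 denotes the concentration required for 50% inhibition of growth.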 The source made the active and inactive calls. No stated cut-off is given here; in the data, active = GI50 up to about 1.1 µM and inactive = higher. A value given as a limit tells only on which side of the number the result lay.

Common to all, as to assay: DTP human tumour cell line panel, 48 h
For assay [1], the system named is HCC 2998.
The subject of assay [2] is OVCAR-3.
Assay [3] concerns SF-295.
Assay [4] has as its system CCRF-CEM.
The test system of assay [5] is MDA-MB-231.
The subject of assay [6] is SK-MEL-2.
Assay [7] relates to UACC-257.
Assay [8] has as its system HCT-116.
For assay [9], the system named is M14.
In assay [10] the test system is ACHN.
Assay [11] has as its system IGROV-1.
The subject of assay [12] is Malme-3M.
Assay [13] relates to LOX IMVI.
Assay [14] relates to NCI-H460.
Assay [15] deals with NCI/ADR-RES.
Assay [16] deals with Hs-578T.
Assay [17] deals with PC-3.
Assay [18] relates to NCI-H23.
The subject of assay [19] is RPMI-8226.
For assay [20], the system named is T47D.

Broadly, the GI50 is the concentration giving 50% growth inhibition. Take `c1ccc(C2(c3ccccc3)S/C(=C3/SC(c4ccccc4)(c4ccccc4)c4ccccc43)c3ccccc32)cc1`: the GI50 in assay [1], in [2], in [3], in assay [4], in assay [5] and in [6] was > 100 µM (inactive) throughout. Besides, the GI50 in [7], in assay [8], in assay [9], in [10], in assay [11] and in assay [12] was > 100 µM (inactive) in each case. The GI50 in assay [13], in [14], in assay [15], in [16], in [17] and in assay [18] was > 100 µM (inactive) throughout.
With `CC(=O)C(C(C)=O)[C@@H]1OC(C)(C)O[C@@H]1[C@H]1COC(C)(C)O1`, the GI50 in assay [1] is > 100 µM (inactive); in assay [2], 62.8 µM (inactive); in [3], > 100 µM (inactive); in assay [5] it was > 100 µM (inactive); in assay [6], 28.5 µM (inactive); in assay [7], 64 µM (inactive). Further, the GI50 in assay [8] was 30.9 µM (inactive); in assay [9], 47.4 µM (inactive); in assay [10], > 100 µM (inactive); in assay [11], 35.6 µM (inactive); in assay [12], 22.5 µM (inactive); in [13], 87.1 µM (inactive). For the same compound, the GI50 is 61.5 µM (inactive) in [14]; 55.6 µM (inactive) in [15]; 28.4 µM (inactive) in assay [16]; 43.6 µM (inactive) in assay [17]; 34 µM (inactive) in [18]; 34.7 µM (inactive) in assay [19].
`C=CCCC1(CCP(=O)(c2ccccc2)c2ccccc2)OCCO1`: the GI50 in assay [1], in [2], in assay [3], in assay [4], in assay [5] and in assay [6] was > 100 µM (inactive) each time. For the same compound, the GI50 in assay [7], in [8], in assay [9], in [10], in assay [11] and in assay [12] was > 100 µM (inactive) each time. Also, the GI50 in assay [13], in assay [14], in assay [15], in assay [16], in [17] and in [18] was > 100 µM (inactive) each time. In addition, in assay [19], the GI50 is > 100 µM (inactive).
As to `O=C(O)CCCC#CCCCC(=O)O`, the GI50 in assay [1], in [2], in [3], in assay [6], in assay [7] and in assay [8] was > 100 µM (inactive) throughout. Further, the GI50 in [9], in assay [10], in assay [11], in [12], in [13] and in assay [14] was > 100 µM (inactive) in each case. The GI50 in assay [20], in assay [15], in assay [16], in [17] and in assay [18] was > 100 µM (inactive) in each case.
Take `COc1cc(/C=C2\CCC(C)/C(=C\c3cc(OC)c(OC)c(OC)c3)C2=O)cc(OC)c1OC` (stereo not given): the GI50 was 1.29 µM (inactive) in [4]; 8.41 µM (inactive) in [5]; 1.67 µM (inactive) in [6]; 3.78 µM (inactive) in [7]; 3.32 µM (inactive) in assay [8]; 1.96 µM (inactive) in assay [9]. Besides, the GI50 was 3.02 µM (inactive) in assay [10]; 2.38 µM (inactive) in assay [11]; 3.27 µM (inactive) in assay [13]; 8.95 µM (inactive) in assay [20]; 8.81 µM (inactive) in assay [16]; 2.7 µM (inactive) in [17]. Further, in [19], the GI50 is 0.286 µM (active).
On to `CC(C)CC(NC=O)C(=O)NC(Cc1ccccc1)NC(=O)CNC(=O)C(C)NC(=O)C(N)Cc1ccc(O)cc1` (stereo not given), for which the GI50 in assay [2], in assay [3], in assay [5], in assay [8], in [9] and in [10] was > 100 µM (inactive) in each case. Further, the GI50 in [11], in assay [13], in assay [14], in [20], in [15] and in assay [16] was > 100 µM (inactive) each time. Moreover, the GI50 in assay [17], in assay [18] and in assay [19] was > 100 µM (inactive) in each case.
In the case of `Cc1ccc(/C=C2\CCCCCC2=O)cc1`, the GI50 in assay [1] is > 100 µM (inactive); in [2], > 100 µM (inactive); in assay [3], > 100 µM (inactive); in assay [4], 41.3 µM (inactive); in assay [5] it was > 100 µM (inactive); in assay [6], > 100 µM (inactive). Further, the GI50 in assay [7], in assay [8], in assay [9], in [10], in assay [11] and in assay [12] was > 100 µM (inactive) throughout. Also, the GI50 in assay [13], in [14], in assay [20], in [16], in assay [17] and in assay [18] was > 100 µM (inactive) each time. In assay [19], the GI50 is > 100 µM (inactive).
Consider `C#CCCCCC#Cc1ccccc1C(=O)C=[N+]=[N-]`, for which the GI50 in assay [1], in assay [3], in [5], in [6], in [7] and in assay [8] was > 100 µM (inactive) in each case. Also, the GI50 in [9], in [10], in assay [11], in [14], in assay [20] and in assay [16] was > 100 µM (inactive) throughout. The GI50 in assay [17] was > 100 µM (inactive); in [18], > 100 µM (inactive); in assay [19], 16.5 µM (inactive).
For the compound `COc1c(C)c(C/C=C(\C)CC/C=C(\C)CCC=C(C)C)c(OC)c(OC)c1OC`, the GI50 in [1] was 54.6 µM (inactive); in assay [2] it was > 100 µM (inactive); in assay [3] it was 75 µM (inactive); in assay [4], 56.5 µM (inactive); in [5], > 100 µM (inactive); in assay [6], > 100 µM (inactive). Also, the GI50 in [7] was 64.9 µM (inactive); in assay [8], > 100 µM (inactive); in [9], > 100 µM (inactive); in assay [10], > 100 µM (inactive); in [11], > 100 µM (inactive); in assay [13], 76.6 µM (inactive). Further, the GI50 in assay [14], in assay [15], in assay [16], in assay [17] and in assay [18] was > 100 µM (inactive) each time.
Take `CC12CC(c3ccccc3O1)C(C(=O)Nc1ccc(F)cc1)C(=O)N2` (stereo not given): the GI50 is > 100 µM (inactive) in [1]; > 100 µM (inactive) in [2]; 28.2 µM (inactive) in assay [4]; > 100 µM (inactive) in [6]; 81.8 µM (inactive) in [7]; > 100 µM (inactive) in assay [8]. The GI50 was > 100 µM (inactive) in [9]; > 100 µM (inactive) in assay [10]; 49.1 µM (inactive) in [11]; > 100 µM (inactive) in assay [12]; > 100 µM (inactive) in assay [13]; 89.7 µM (inactive) in assay [14]. Further, the GI50 in assay [20] was 33.5 µM (inactive); in [15], 47.4 µM (inactive); in assay [16], > 100 µM (inactive); in [17] it was > 100 µM (inactive); in assay [18], 44.6 µM (inactive); in assay [19], 40.3 µM (inactive).
On to `C[C@]12Cc3cnn(-c4ccc(F)cc4)c3NC1CC[C@@H]1C2CC[C@@]2(C)C1CC[C@@H]2O` (stereo not given in full), for which the GI50 was 5.41 µM (inactive) in [1]; 12.4 µM (inactive) in assay [2]; 1.62 µM (inactive) in assay [3]; 6.92 µM (inactive) in assay [4]; 6.97 µM (inactive) in assay [5]; 5.24 µM (inactive) in assay [7]. For the same compound, the GI50 in assay [8] is 3.94 µM (inactive); in [9], 11.1 µM (inactive); in assay [10], 2.31 µM (inactive); in assay [11], 12.7 µM (inactive); in assay [12] it was 11.5 µM (inactive); in assay [14] it was 3.65 µM (inactive). For the same compound, the GI50 in assay [20] is 2.65 µM (inactive); in [16] it was 3.1 µM (inactive); in assay [17], 10 µM (inactive); in assay [18], 2.85 µM (inactive).
